Assay [1] has as its system Escherichia coli ATCC 25922. Nature of the assay: Minimum inhibitory concentration (MIC), CLSI broth micro-dilution, E. coli. To be noted: Escherichia coli, ATCC25922, 22 h, Table 6, cation adjusted Mueller Hinton Broth + 0.002% Tween-80, 35° C. It counts as cell-based. Put shortly:
(§1)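 Colonies grown 20 h at 35° C on Trypticase Soy agar (MRSA) or Luria agar (E. coli) were suspended in cation-adjusted Mueller Hinton broth with 0.002% Tween-80. Suspensions were added at OD600 0.0005 to 10-point twofold compound dilutions, then incubated 22 h at 35° C.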

Assay [2] relates to Methicillin Resistant Staphylococcus aureus strain USA 200. Nature of the assay: Minimum inhibitory concentration (MIC), CLSI broth micro-dilution, S. aureus. The assay is classed as cell-based. To be noted: Staphylococcus aureus, MRSA / USA200; Table 6; MRSA USA 200; cation adjusted Mueller Hinton Broth + 0.002% Tween-80; 35° C., 22 hours. A digest of the protocol:
as §1

Molecules are shown by their SMILES.

With `Cc1nc(-c2ccc(C(C)(C)C)cc2)nc(C)c1C(=O)N[C@@H](COCCN)C(=O)N(C)[C@@H]1C(=O)N[C@@H](C)C(=O)N[C@H](C(=O)NCC#N)Cc2ccc(OCCN)c(c2)-c2cc1ccc2OCCN` (racemic) [Compound 495, rac-(8S,11S,14S)-3,18-bis(2-aminoethoxy)-N-(cyanomethyl)-11-methyl-14-[methyl-[rac-(2S)-3-(2-aminoethoxy)-2-[[2-(4-tert-butylphenyl)-4,6-dimethyl-pyrimidine-5-carbonyl]amino]propanoyl]amino]-10,13-dioxo-9,12-diazatricyclo[13.3.1.12,6]icosa-1(18),2(20),3,5,15(19),16-hexaene-8-carboxamide], the values for the MIC in assay [1] and in assay [2] were 1 µM and 0.031 µM, respectively.

In the case of `C[C@@H]1NC(=O)[C@@H](N(C)C(=O)[C@H](CCN)NC(=O)c2cnn(-c3ccc(C(C)(C)C)cc3)c(=O)c2)c2ccc(OCCN)c(c2)-c2cc(ccc2OCCN)C[C@@H](C(=O)NCC#N)NC1=O` (racemic) [Compound 384, rac-(8S,11S,14S)-3,18-bis(2-aminoethoxy)-N-(cyanomethyl)-11-methyl-14-[methyl-[rac-(2S)-4-amino-2-[[1-(4-tert-butylphenyl)-6-oxo-pyridazine-4-carbonyl]amino]butanoyl]amino]-10,13-dioxo-9,12-diazatricyclo[13.3.1.12,6]icosa-1(18),2(20),3,5,15(19),16-hexaene-8-carboxamide], the minimal inhibitory concentration (MIC) in assay [1] stood at 0.4 µM; in assay [2] it was 0.033 µM.

Consider `Cc1nc(-c2ccc(C(C)(C)C)cc2)c(O)cc1C(=O)N[C@@H](CCN)C(=O)N(C)[C@@H]1C(=O)N[C@@H](C)C(=O)N[C@H](C(=O)NCC#N)Cc2ccc(OCCN)c(c2)-c2cc1ccc2OCCN` (racemic) [Compound 404, rac-(8S,11S,14S)-3,18-bis(2-aminoethoxy)-N-(cyanomethyl)-11-methyl-14-[methyl-[rac-(2S)-4-amino-2-[[6-(4-tert-butylphenyl)-5-hydroxy-2-methyl-pyridine-3-carbonyl]amino]butanoyl]amino]-10,13-dioxo-9,12-diazatricyclo[13.3.1.12,6]icosa-1(18),2(20),3,5,15(19),16-hexaene-8-carboxamide], for which the MIC in assay [1] turned out to be 0.38 µM; in assay [2], 0.094 µM.

In the case of `Cc1nc(-c2ccc3c(c2)CCCC3(C)C)nc(C)c1C(=O)N[C@@H](CCN)C(=O)N(C)[C@@H]1C(=O)N[C@@H](C)C(=O)N[C@H](C(=O)NCC#N)Cc2ccc(OCCN)c(c2)-c2cc1ccc2OCCN` (racemic) [Compound 270, rac-(8S,11S,14S)-3,18-bis(2-aminoethoxy)-N-(cyanomethyl)-11-methyl-14-[methyl-[rac-(2S)-4-amino-2-[[2-(1,1-dimethyltetralin-6-yl)-4,6-dimethyl-pyrimidine-5-carbonyl]amino]butanoyl]amino]-10,13-dioxo-9,12-diazatricyclo[13.3.1.12,6]icosa-1(18),2(20),3,5,15(19),16-hexaene-8-carboxamide], the minimal inhibitory concentration (MIC) in assay [1] is 0.064 µM; in assay [2], 0.012 µM.

On to `CC(=O)NCCOc1ccc2cc1-c1cc(ccc1OCCN)[C@H](N(C)C(=O)[C@H](CCN)NC(=O)c1c(C)nc(-c3ccc(C(C)(C)C)cc3)nc1C)C(=O)N[C@@H](C)C(=O)N[C@H](C(=O)NCC#N)C2` (racemic) [Compound 517, rac-(8S,11S,14S)-3-(2-acetamidoethoxy)-18-(2-aminoethoxy)-N-(cyanomethyl)-11-methyl-14-[methyl-[rac-(2S)-4-amino-2-[[2-(4-tert-butylphenyl)-4,6-dimethyl-pyrimidine-5-carbonyl]amino]butanoyl]amino]-10,13-dioxo-9,12-diazatricyclo[13.3.1.12,6]icosa-1(18),2(20),3,5,15(19),16-hexaene-8-carboxamide], for which the MIC was determined as 0.75 µM in assay [1] and 0.19 µM in assay [2].

As to `CCCc1ccc(-c2ncc(C(=O)N[C@@H](CCN)C(=O)N(C)[C@@H]3C(=O)N[C@@H](C)C(=O)N[C@H](C(=O)NCC#N)Cc4ccc(OCCN)c(c4)-c4cc3ccc4OCCN)c(C)n2)c(C)c1` (racemic) [Compound 222, rac-(8S,11S,14S)-3,18-bis(2-aminoethoxy)-N-(cyanomethyl)-11-methyl-14-[methyl-[rac-(2S)-4-amino-2-[[4-methyl-2-(2-methyl-4-propyl-phenyl)pyrimidine-5-carbonyl]amino]butanoyl]amino]-10,13-dioxo-9,12-diazatricyclo[13.3.1.12,6]icosa-1(18),2(20),3,5,15(19),16-hexaene-8-carboxamide], the values for the MIC in assay [1] and in assay [2] were 0.53 µM and 0.033 µM, respectively.

On to `Cc1nc(-c2ccc(CCC(C)C)cc2)nc(C)c1C(=O)N[C@@H](CCN)C(=O)N(C)[C@@H]1C(=O)N[C@@H](C)C(=O)N[C@H](C(=O)NCC#N)Cc2ccc(OCCN)c(c2)-c2cc1ccc2OCCN` (racemic) [Compound 262, rac-(8S,11S,14S)-3,18-bis(2-aminoethoxy)-N-(cyanomethyl)-11-methyl-14-[methyl-[rac-(2S)-4-amino-2-[[2-(4-isopentylphenyl)-4,6-dimethyl-pyrimidine-5-carbonyl]amino]butanoyl]amino]-10,13-dioxo-9,12-diazatricyclo[13.3.1.12,6]icosa-1(18),2(20),3,5,15(19),16-hexaene-8-carboxamide], for which the values for the MIC in assay [1] and in assay [2] were 0.097 µM and 0.0081 µM, respectively.

On to `C[C@@H]1NC(=O)[C@@H](N(C)C(=O)[C@H](CCN)NC(=O)c2cnc(-c3ccc(C(C)(C)C)cc3)nc2O)c2ccc(OCCN)c(c2)-c2cc(ccc2OCCN)C[C@@H](C(=O)NCC#N)NC1=O` (racemic) [Compound 419, rac-(8S,11S,14S)-3,18-bis(2-aminoethoxy)-N-(cyanomethyl)-11-methyl-14-[methyl-[rac-(2S)-4-amino-2-[[2-(4-tert-butylphenyl)-4-hydroxy-pyrimidine-5-carbonyl]amino]butanoyl]amino]-10,13-dioxo-9,12-diazatricyclo[13.3.1.12,6]icosa-1(18),2(20),3,5,15(19),16-hexaene-8-carboxamide], for which the minimum inhibitory concentration (MIC) in assay [1] was 8 µM; in assay [2], 0.063 µM.

Regarding `Cc1nc(-c2ccc(C(C)(C)C)cc2)nc(C)c1C(=O)N[C@@H](CCN)C(=O)N(C)[C@@H]1C(=O)N[C@@H](C)C(=O)N[C@H](C(=O)NCC#N)Cc2ccc(OCCN)c(c2)-c2cc1ccc2OCCN` (racemic) [Compound 253, rac-(8S,11S,14S)-3,18-bis(2-aminoethoxy)-N-(cyanomethyl)-11-methyl-14-[methyl-[rac-(2S)-4-amino-2-[[2-(4-tert-butylphenyl)-4,6-dimethyl-pyrimidine-5-carbonyl]amino]butanoyl]amino]-10,13-dioxo-9,12-diazatricyclo[13.3.1.12,6]icosa-1(18),2(20),3,5,15(19),16-hexaene-8-carboxamide], the minimal inhibitory concentration (MIC) in assay [1] was determined as 0.14 µM; in assay [2], 0.012 µM.

Regarding `Cc1nc(-c2ccc(C(C)(C)C)cc2)nc(C)c1C(=O)N[C@@H](CC(C)(C)N)C(=O)N(C)[C@@H]1C(=O)N[C@@H](C)C(=O)N[C@H](C(=O)NCC#N)Cc2ccc(OCCN)c(c2)-c2cc1ccc2OCCN` [Compound 492, (8S,11S,14S)-14-[[(2S)-4-amino-2-[[2-(4-tert-butylphenyl)-4,6-dimethyl-pyrimidine-5-carbonyl]amino]-4-methyl-pentanoyl]-methyl-amino]-3,18-bis(2-aminoethoxy)-N-(cyanomethyl)-11-methyl-10,13-dioxo-9,12-diazatricyclo[13.3.1.12,6]icosa-1(18),2(20),3,5,15(19),16-hexaene-8-carboxamide], the minimal inhibitory concentration (MIC) in assay [1] was found to be 2 µM; in assay [2] it was 0.016 µM.

For the compound `Cc1nc(-c2ccc(COC(C)(C)C)cc2)nc(C)c1C(=O)N[C@@H](CCN)C(=O)N(C)[C@@H]1C(=O)N[C@@H](C)C(=O)N[C@H](C(=O)NCC#N)Cc2ccc(OCCN)c(c2)-c2cc1ccc2OCCN` (racemic) [Compound 343, rac-(8S,11S,14S)-3,18-bis(2-aminoethoxy)-N-(cyanomethyl)-11-methyl-14-[methyl-[rac-(2S)-4-amino-2-[[2-[4-(tert-butoxymethyl)phenyl]-4,6-dimethyl-pyrimidine-5-carbonyl]amino]butanoyl]amino]-10,13-dioxo-9,12-diazatricyclo[13.3.1.12,6]icosa-1(18),2(20),3,5,15(19),16-hexaene-8-carboxamide], the MIC stood at 0.75 µM in assay [1] and 0.13 µM in assay [2].

In the case of `Cc1nc(-c2ccc(C3CC3)cc2)nc(C)c1C(=O)N[C@@H](CCN)C(=O)N(C)[C@@H]1C(=O)N[C@@H](C)C(=O)N[C@H](C(=O)NCC#N)Cc2ccc(OCCN)c(c2)-c2cc1ccc2OCCN` (racemic) [Compound 300, rac-(8S,11S,14S)-3,18-bis(2-aminoethoxy)-N-(cyanomethyl)-11-methyl-14-[methyl-[rac-(2S)-4-amino-2-[[2-(4-cyclopropylphenyl)-4,6-dimethyl-pyrimidine-5-carbonyl]amino]butanoyl]amino]-10,13-dioxo-9,12-diazatricyclo[13.3.1.12,6]icosa-1(18),2(20),3,5,15(19),16-hexaene-8-carboxamide], the figures for the minimal inhibitory concentration (MIC) in assay [1] and in assay [2] were 0.25 µM and 0.031 µM, respectively.

Take `Cc1nc(C#CC(C)(C)C)nc(C)c1C(=O)N[C@@H](CCN)C(=O)N(C)[C@@H]1C(=O)N[C@@H](C)C(=O)N[C@H](C(=O)NCC#N)Cc2ccc(OCCN)c(c2)-c2cc1ccc2OCCN` (racemic) [Compound 306, rac-(8S,11S,14S)-3,18-bis(2-aminoethoxy)-N-(cyanomethyl)-11-methyl-14-[methyl-[rac-(2S)-4-amino-2-[[2-(3,3-dimethylbut-1-ynyl)-4,6-dimethyl-pyrimidine-5-carbonyl]amino]butanoyl]amino]-10,13-dioxo-9,12-diazatricyclo[13.3.1.12,6]icosa-1(18),2(20),3,5,15(19),16-hexaene-8-carboxamide]: the MIC is 14 µM in assay [1] and 0.84 µM in assay [2].

The record behind these values is US20260274892A1, “MACROCYCLIC BROAD SPECTRUM ANTIBIOTICS” (RQx Pharmaceuticals, Inc., priority 2017, published 2026).
